From patent publication US20090297618A1, “COMPOSITION BENEFICIAL FOR VISUOGNOSIS PERSISTENCE AND USE THEREOF” (Zhejiang Medicine Co., Ltd. Xinchang Pharmaceutical Factory, priority 2008, published 2009) come the findings set out here.

The test concerns subjects who use video display terminals (VDT) for long time and tend to have asthenopia. Briefly: Human feeding test: detection of visuognosis persistence (asthenopia remission test). It counts as in vivo. As to conditions: after feeding tablets 35 days, once per day, two tablets, compared with before feeding; FIG. 1. From the text: As used herein, the term “visuognosis persistence” is an index for evaluating asthenopia. When the cortical excitability in the human brain reduces, the visual analysis function decreases, in the process of eyes fixating at object, invisible duration will increase and visuognosis duration will decrease. […] X^2 test was used for performance indexes.

Structures are written as SMILES.

As to `CC1=C[C@H](O)CC(C)(C)[C@H]1/C=C/C(C)=C/C=C/C(C)=C/C=C/C=C(C)/C=C/C=C(C)/C=C/C1=C(C)C[C@@H](O)CC1(C)C` [lutein], the visuognosis persistence increased was found to be 10.27±8.56%.
